The target in experiment [1] is T1, AF9-DOT1L interaction (Homo sapiens, UniProt P42568).
T1 construct: cDNA for human AF9 AHD domain (475-568) and ENL AHD domain (489-559) was synthesized; made in house; host or cells: E. coli BL21(DE3)
T1 sequence (P42568 475-568): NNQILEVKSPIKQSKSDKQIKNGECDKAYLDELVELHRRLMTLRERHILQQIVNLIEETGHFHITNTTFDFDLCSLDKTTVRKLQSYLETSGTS
The experiment is described as follows: Alpha assay, AF9 AHD-DOT1L peptide interaction. The format is binding. As to conditions: for IC50: read-out: IC50, inhibition of AF9-DOT1L interaction. The text has this:
(§1) We developed an Alpha (amplified luminescent proximity homogeneous assay) assay to determine the binding and inhibition of the PPI between maltose-binding protein (MBP)-tagged AF9 AHD and a biotin-labeled DOT1L peptide, using AlphaLisa streptavidin donor beads and anti-MBP acceptor beads. Laser excitation to the donor beads generates singlet oxygen radicals, which can travel for <200 nm in solution and cannot reach the free acceptor beads. The PPI brings the DOT1L coated donor beads and AHD coated acceptor beads together, allowing the radicals to activate the acceptor beads and produce luminescence. […] We also developed a fluorescence polarization (FP) assay. A fluorescein-labeled DOT1L peptide has a higher freedom in solution with a lower polarization value.
(§2) Alpha assays. Alpha assays were developed using Perkin-Elmer AlphaLisa anti-MBP kit, which contains streptavidin donor beads and anti-MBP acceptor beads. The assay was performed using a MBP-protein (5 nM), a biotinylated peptide (40 nM), and increasing concentrations of a compound in 25 µL buffer (PBS with 0.5 % BSA, pH 7.5) in 384-well plates according to the manufacturer's protocol and measured with a Tecan SPARK microplate reader. Data were imported into Prism (version 5.0), and IC50 values from 3 independent experiments with standard deviation were obtained by using a standard dose-response curve fitting.

The target of a further experiment is T2, AF9-AF4 interaction (Homo sapiens, UniProt P42568).
T2 construct: cDNA for human AF9 AHD domain (475-568) and ENL AHD domain (489-559) was synthesized; made in house; host or cells: E. coli BL21(DE3)
Briefly: Alpha assay, AF9-AF4 interaction. The experiment is classed as binding. Particulars: read-out: IC50, inhibition of AF9-AF4 interaction. As to the method: (§3) ENL is also a major MLL fusion partner (~10%). The AHD domains of human ENL and AF9 share a high homology with 82% identity and 89% similarity (Figure S1A). […] Our attempts to develop an Alpha assay for ENL-DOT1L failed. […] Compound 1's activity against ENL-DOT1L was therefore not determined.
as §2

In the next experiment the target is T3, ENL-AF4 interaction (Homo sapiens, UniProt Q03111).
T3 construct: ENL AHD domain (489-559) was synthesized (by Genscript) and inserted into the pMAL c5X expression plasmid; made in house; host or cells: E. coli BL21(DE3)
The experiment is described as follows: Alpha assay, ENL-AF4 interaction. The format is binding. As to conditions: read-out: IC50, inhibition of ENL-AF4 interaction. The protocol:
as §3, §2

The next experiment concerns the target T4, AF9-AFF4 interaction (Homo sapiens, UniProt P42568).
T4 construct: cDNA for human AF9 AHD domain (475-568) and ENL AHD domain (489-559) was synthesized; made in house; host or cells: E. coli BL21(DE3)
The experiment is described as follows: Alpha assay, AF9-AFF4 interaction. The format is binding. As to conditions: read-out: IC50, inhibition of AF9-AFF4 interaction. The protocol: as §3, §2

In the next experiment the target is T5, ENL-AFF4 interaction (Homo sapiens, UniProt Q03111).
T5 construct: ENL AHD domain (489-559) was synthesized (by Genscript) and inserted into the pMAL c5X expression plasmid; made in house; host or cells: E. coli BL21(DE3)
The experiment is described as follows: Alpha assay, ENL-AFF4 interaction. Particulars: read-out: IC50, inhibition of ENL-AFF4 interaction. The format is binding. As to the method:
as §3, §2

For experiment [2], the target named is T1, AF9-DOT1L interaction. Briefly: Fluorescence polarization (FP) inhibition assay, AF9-DOT1L. The format is binding.
Source text: as §1
Fluorescence polarization assay. It was performed in 96-well black microplates with each well containing a Fluorescein-labeled peptide (2 nM) and increasing concentration of a AF9/ENL protein in a buffer (20 mM HEPES, pH 7.5, 0.01% Triton X-100, 100 µL) for Kd determination. For IC50 determination, a Fluorescein-labeled peptide (2 nM), AF9/ENL protein (100 nM) and increasing concentration of a compound in the same buffer were placed in each well. Upon incubation of 1h, the FP value of each well was determined using a Tecan SPARK microplate reader. Data were similarly processed to obtain Kd or IC50 values.
For orientation: In fluorescence polarisation assays a small probe gives low polarisation when free and higher when bound to something large.

The target in experiment [3] is T6, maltose-binding protein (MBP)-tagged ENL AHD domain (489-559) (human, UniProt Q03111 489-559).
T6 construct: human ENL, AHD domain, residues 489-559; cDNA synthesized by Genscript, in pMAL c5X; No cleavage of MBP is described; source: E. coli BL21(DE3), purified (amylose resin, size exclusion)
T6 sequence (looked up): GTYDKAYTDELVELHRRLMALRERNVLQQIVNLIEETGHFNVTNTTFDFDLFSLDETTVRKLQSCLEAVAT
The experiment is described as follows: fluorescence polarisation; direct titration: fluorescein-labeled peptide 2 nM, increasing concentration of AF9/ENL protein; 20 mM HEPES, pH 7.5, 0.01% Triton X-100; 1 h incubation. As to conditions: both partners purified.

Experiment [4] concerns the target T7, maltose-binding protein (MBP)-tagged AF9 AHD domain (475-568) (human, UniProt P42568 475-568).
T7 construct: human AF9, AHD domain, residues 475-568; cDNA synthesized by Genscript, in pMAL c5X; No cleavage of MBP is described; the protein is captured or detected by anti-MBP in the Alpha and pull-down assays; also called MBP-AF9 AHD; source: E. coli BL21(DE3), purified (amylose resin, size exclusion)
T7 sequence (looked up): T1 sequence (P42568 475-568)
Described as above. Particulars: both partners purified.

No end group written: not given here. *: point of attachment. FITC = O=C1OC2(c3ccc(O)cc3Oc3cc(O)ccc32)c2ccc(NC(=S)*)cc21; Ahx = NCCCCCC(=O)O

The term IC50 denotes the concentration at which inhibition is half-maximal. Broadly, the Kd is the equilibrium constant for the complex coming apart. The low end stands for a tighter complex, the high end for a looser complex.

Take `CC(C)(C)c1ccc(-n2cc(C(=O)NCC3CCNCC3)nc2-c2ccccc2)cc1` [Compound 8]: on AF9-DOT1L interaction [1], the 50% inhibitory concentration (IC50) stood at 29200 nM.

For the molecule `CC(C)(C)c1ccc(-n2cc(C(=O)Nc3ccc(Cl)c(F)c3)nc2-c2ccccc2)cc1` [Compound 9], at AF9-DOT1L interaction [1], the “IC50, inhibition of AF9-DOT1L interaction” value is “inactive” and the IC50 was > 50000 nM.

In the case of NKLPVSIPLASVVLPSRAERARST [DOT1L], the IC50 on AF9-AF4 interaction is 60 ± 12 nM; at ENL-AF4 interaction, 13200 ± 1100 nM; at AF9-AFF4 interaction, 95 ± 16 nM; on ENL-AFF4 interaction, 2000 ± 100 nM; on AF9-DOT1L interaction [1], 13 ± 1 nM; against AF9-DOT1L interaction [2], 72 nM.

B1: FITC-AHX-AF4 peptide (peptide)
peptide: {FITC-Ahx}-QSLMVKITLDLLSRIPQPPGK
notes: Used in the FP assay; source: synthetic peptide, bought: Genscript
As for B1, the Kd was 9.6 ± 1.7 nM in experiment [3] and 18 ± 1 nM in experiment [4].

B2: FITC-AHX-DOT1L peptide (peptide)
peptide: {FITC-Ahx}-NKLPVSIPLASVVLPSRAERARST
notes: Used in the FP assay; also called fluorescein-labeled DOT1L peptide; source: synthetic peptide, bought: Genscript
B2: the Kd in experiment [3] came to 640 ± 60 nM; in experiment [4] it was 87 ± 9 nM.

B3: FITC-AHX-AFF4 peptide (peptide)
peptide: {FITC-Ahx}-YPLIVKIDLNLLTRIPGKPYK
notes: as for B1
As for B3, the dissociation constant Kd was found to be 31 ± 6 nM in experiment [3] and 15 ± 1 nM in experiment [4].

For the origin of these results see publication PMC8344022, “Small-molecule inhibitor of AF9/ENL-DOT1L/AF4/AFF4 interactions suppresses malignant gene expression and tumor growth” (Theranostics, 2021).
